Experimental data: patent US20130143894A1 (vadel Pharma Inc., priority 2010, published 2013)
Structures can show the parent of a compound that is named as a salt.

Key:
[1] = Safety / tolerability in the relative bioavailability study; assay type: in vivo, human; details: oral spray doses of 10 mg, 20 mg, 30 mg and single oral dose of 25 mg (1×25 mg tablet), healthy adult subjects, under fed conditions
Procedure: Assessments include evaluation of changes in orthostatic hypotension, oral irritation, vital sign assessments, 12-lead electrocardiogram (ECG), and clinical assessments.
After dosing, the following activities were completed: • Both objective and subjective oral irritation assessments were performed immediately after dosing and at one hour after dose administration. • A fast was maintained until at least four hours after dosing. During the study confinement period, fluid consumption resumed no sooner than one hour after dose administration. […]
• Blood sample collections were obtained as per the profile. • Supine and standing blood pressure and heart rate was measured at approximately 24 hours after each dose. • All subjects were evaluated for the presence of any adverse events prior to release from the study site. • Prior to release, subjects were evaluated to ensure it was safe for them to be released from the study site. • Subjects were released from the study site at approximately 24 hours after dose administration.

[2] = cited from earlier work

Structure (SMILES)	tolerability [1]	absolute bioavailability ([2]; after oral administration (tablet)) [%]	mean steady state volume of distribution (Vss) ([2]; in vivo) [L]
CCCc1nn(C)c2c(=O)[nH]c(-c3cc(S(=O)(=O)N4CCN(C)CC4)ccc3OCC)nc12 [sildenafil citrate]	well tolerated	–	–
CCCc1nn(C)c2c(=O)[nH]c(-c3cc(S(=O)(=O)N4CCN(C)CC4)ccc3OCC)nc12 [sildenafil, 1-[[3-(6,7-dihydro-1-methyl-7-oxo-3-propyl-1H-pyrazolo[4,3-d]pyrimidin-5-yl)-4-ethoxyphenyl]sulfonyl]-4-methylpiperazine]	–	41	105
